Assay results reported in the supplement of paper PMC10307832.

Tests used:
Test in all cases: relative viability (nuclei count vs DMSO), 5 days (fraction); higher = more cells survive
Alpelisib + OSI-027 = compound: Cc1nc(NC(=O)N2CCC[C@H]2C(N)=O)sc1-c1ccnc(C(C)(C)C(F)(F)F)c1 [Alpelisib] + COc1cccc2cc(-c3nc([C@H]4CC[C@H](C(=O)O)CC4)n4ncnc(N)c34)[nH]c12 [OSI-027] (partner 0.5 µM)
Method in brief: (§1)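 Relative viability was taken as the ratio of nuclei in treated wells to nuclei in vehicle wells. Lung cancer cell lines in 1536-well plates received compounds by pin tool one day after seeding, either one drug alone or a fixed anchor-drug dose plus five library-drug doses (not always all listed) in √10 steps. Nuclei were counted on 4× images after 5 days of treatment, and values are medians of duplicate plates.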

Vemurafenib + Vorinostat = compound: CCCS(=O)(=O)Nc1ccc(F)c(C(=O)c2c[nH]c3ncc(-c4ccc(Cl)cc4)cc23)c1F [Vemurafenib] + O=C(CCCCCCC(=O)Nc1ccccc1)NO [Vorinostat] (partner 1 µM)
Method in brief: as §1

OSI-027 + Pictilisib = compound: COc1cccc2cc(-c3nc([C@H]4CC[C@H](C(=O)O)CC4)n4ncnc(N)c34)[nH]c12 [OSI-027] + CS(=O)(=O)N1CCN(Cc2cc3nc(-c4cccc5[nH]ncc45)nc(N4CCOCC4)c3s2)CC1 [Pictilisib] (partner 1 µM)
Method in brief: as §1

Alpelisib + Pemetrexed = compound: Cc1nc(NC(=O)N2CCC[C@H]2C(N)=O)sc1-c1ccnc(C(C)(C)C(F)(F)F)c1 [Alpelisib] + Nc1nc2[nH]cc(CCc3ccc(C(=O)N[C@@H](CCC(=O)O)C(=O)O)cc3)c2c(=O)[nH]1 [Pemetrexed] (partner 0.2 µM)
Method in brief: as §1

Cell Line | relative viability (Alpelisib + OSI-027; first compound 0.04 µM) | relative viability (Alpelisib + OSI-027; first compound 0.1265 µM) | relative viability (Alpelisib + OSI-027; first compound 0.4 µM) | relative viability (Alpelisib + OSI-027; first compound 1.265 µM) | relative viability (Alpelisib + OSI-027; first compound 4 µM) | relative viability (Vemurafenib + Vorinostat; first compound 0.03162 µM) | relative viability (Vemurafenib + Vorinostat; first compound 0.1 µM) | relative viability (Vemurafenib + Vorinostat; first compound 0.3162 µM) | relative viability (Vemurafenib + Vorinostat; first compound 1 µM) | relative viability (OSI-027 + Pictilisib; first compound 0.01 µM) | relative viability (OSI-027 + Pictilisib; first compound 0.03162 µM) | relative viability (OSI-027 + Pictilisib; first compound 0.1 µM) | relative viability (OSI-027 + Pictilisib; first compound 0.3162 µM) | relative viability (OSI-027 + Pictilisib; first compound 1 µM) | relative viability (Alpelisib + Pemetrexed; first compound 0.04 µM) | relative viability (Alpelisib + Pemetrexed; first compound 0.1265 µM) | relative viability (Alpelisib + Pemetrexed; first compound 0.4 µM) | relative viability (Alpelisib + Pemetrexed; first compound 1.265 µM) | relative viability (Alpelisib + Pemetrexed; first compound 4 µM)
NCI-H1355 | 0.406 | 0.325 | 0.311 | 0.285 | 0.235 | 0.56 | 0.58 | 0.566 | 0.642 | 0.436 | 0.399 | 0.326 | 0.271 | 0.208 | 1.03 | 1.03 | 1.01 | 0.934 | 0.926
LXF-289 | 0.725 | 0.626 | 0.685 | 0.567 | 0.427 | 0.708 | 0.656 | 0.805 | 0.789 | 0.778 | 0.714 | 0.752 | 0.511 | 0.46 | 0.899 | 0.866 | 0.999 | 0.904 | 0.949
LOU-NH91 | 0.754 | 0.601 | 0.638 | 0.543 | 0.49 | 0.87 | 0.742 | 0.692 | 0.933 | 0.544 | 0.555 | 0.489 | 0.472 | 0.447 | 0.398 | 0.385 | 0.486 | 0.407 | 0.404
NCI-H2170 | 0.695 | 0.612 | 0.663 | 0.589 | 0.39 | 0.733 |  | 0.737 | 0.754 | 0.284 | 0.295 | 0.245 | 0.266 | 0.258 | 0.277 | 0.23 | 0.281 | 0.29 | 0.265
NCI-H2405 | 0.588 | 0.534 | 0.639 | 0.417 | 0.384 | 0.911 | 0.987 |  | 1.03 | 0.406 | 0.345 | 0.292 | 0.228 | 0.242 | 1.08 | 0.975 | 1.02 | 0.814 | 0.571
SK-MES-1 | 0.57 | 0.541 | 0.553 | 0.442 | 0.351 | 1.06 |  | 0.949 | 1.01 | 0.323 | 0.362 | 0.333 | 0.278 | 0.252 | 0.954 | 0.955 | 1.07 | 0.868 | 0.689
LCLC-103H | 0.486 | 0.439 | 0.435 | 0.372 | 0.335 | 0.728 | 0.791 | 0.657 | 0.721 | 0.588 | 0.641 | 0.582 | 0.568 | 0.561 | 0.476 | 0.488 | 0.506 | 0.47 | 0.333
NCI-H322M | 0.56 | 0.527 | 0.515 | 0.36 | 0.41 | 0.84 |  | 1.11 | 0.829 | 0.574 | 0.443 | 0.485 | 0.416 | 0.405 | 0.561 | 0.61 | 0.588 | 0.489 | 0.578
NCI-H23 | 0.672 | 0.485 | 0.521 | 0.363 | 0.314 | 0.53 | 0.588 | 0.561 | 0.402 | 0.491 | 0.403 | 0.407 | 0.312 | 0.245 | 0.78 | 0.622 | 0.726 | 0.602 | 0.416
HCC-15 | 0.623 | 0.563 | 0.589 | 0.484 | 0.339 | 0.775 | 0.8 | 0.899 | 0.805 | 0.768 | 0.771 | 0.68 | 0.596 | 0.367 | 0.228 | 0.218 | 0.211 | 0.21 | 0.211
NCI-H1437 | 0.796 | 0.842 | 0.754 | 0.527 | 0.319 | 0.798 | 0.825 | 0.873 | 0.945 | 0.359 | 0.4 | 0.282 | 0.222 | 0.214 | 0.3 | 0.31 | 0.274 | 0.252 | 0.213
A-427 | 0.509 | 0.411 | 0.456 | 0.351 | 0.308 | 0.807 | 0.819 |  | 0.875 | 0.61 | 0.664 | 0.699 | 0.495 | 0.378 | 0.89 | 0.87 | 0.988 | 0.885 | 0.845
NCI-H1975 | 0.675 | 0.714 | 0.656 | 0.326 | 0.228 | 0.715 | 0.661 | 0.602 | 0.726 | 0.279 | 0.236 | 0.312 | 0.178 | 0.218 | 0.298 | 0.293 | 0.294 | 0.285 | 0.279
SK-LU-1 | 0.378 | 0.297 | 0.29 | 0.219 | 0.201 | 0.699 | 0.687 | 0.535 | 0.835 | 0.529 | 0.462 | 0.355 | 0.272 | 0.287 | 1.04 | 0.987 | 0.938 | 0.909 | 0.955
NCI-H520 | 0.21 | 0.239 | 0.229 | 0.188 | 0.189 | 0.68 | 0.714 | 0.718 | 0.497 | 0.31 | 0.268 | 0.219 | 0.17 | 0.145 | 0.609 | 0.716 | 0.707 | 0.557 | 0.413
NCI-H1755 | 0.684 | 0.575 | 0.719 | 0.55 | 0.509 | 0.749 | 0.728 | 0.68 | 0.778 | 0.412 | 0.392 | 0.346 | 0.306 | 0.281 | 0.409 | 0.432 | 0.437 | 0.371 | 0.402
CAL-12T | 0.67 | 0.449 | 0.823 | 0.411 | 0.403 | 0.673 | 0.698 | 1.04 | 0.875 | 0.401 | 0.394 | 0.315 | 0.299 | 0.294 | 1.26 | 1.14 | 1.3 | 0.93 | 1.03
